Test results published in US7378081B2, “Composition and method for direct visualization of the human appendix” (Vincon Research Enterprises, LLC, priority 2003, dated 2008).

System: human appendix
Assay: Clinical data on delivery and concentration of diatrizoate iodine in the appendix
Format: in vivo
Conditions: following oral administration
Description: The bioavailability and release profile of diatrizoate appear dependent on both concentration and pH, which explains why
Critical to efficacy of the composition are ‘gasless’ enteric conditions and neutralization of the harsh acidity of gastric secretions that appear to inhibit the transit of intact diatrizoate to the appendix. Clinical trials show optimal appendiceal visualization at a critical concentration of 2.8 mg % iodine; however 5 mg % is considered optimal for ideal image contrast.

time until organically bound iodine is delivered and concentrated in the human appendix: approximately 50 minutes
SMILES: CC(=O)Nc1c(I)c(NC(C)=O)c(I)c(C(=O)O)c1I [diatrizoate, 1-deoxy-1-(methylamino)-D-glucitol-3,5-diacetamido-2,4,6-triiodobenzoate]
